Test results reported in patent US5496947A, “Quinolone carboxylic acid derivatives” (Dong Wha Pharmaceutical Industrial Co., Ltd., priority 1994, dated 1996).
Like-named read-outs stand apart in the source and are kept apart here.

Key:
[1] = system: Acinetobacter calcoaceticus; assay: MIC, 2-fold dilution method in micro-well plate, A. calcoaceticus; format: cell-based
[2] = system: Citrobacter freundii ATCC 8090; assay: MIC, 2-fold dilution method in micro-well plate, C. freundii; format: cell-based; conditions: C. freundii ATCC8090, 37° C., read-out: Minimum Inhibitory Concentration
Method in brief: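 MIC recorded after 37° C. culture of wells inoculated at roughly (10^5-10^6)/2 cfu/ml, bacteria pre-grown overnight in BHI broth. Compounds, converted to hydrochloride salts and dissolved in sterile distilled water, serially diluted two-fold in micro-well plates.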

[3] = system: Enterobacter aerogenes ATCC 13048; assay: MIC, 2-fold dilution method in micro-well plate, E. aerogenes; format: cell-based; conditions: Klebsiella aerogenes
Method in brief: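 MIC read after growth at 37° C in micro-well plates, with E. aerogenes at roughly (10^5–10^6)/2 cfu/ml per well, grown overnight in brain-heart infusion broth. Compounds tested as hydrochlorides, serially diluted two-fold in water from a 10 mg/ml stock.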

[4] = system: Enterobacter cloacae; assay: MIC, 2-fold dilution method in micro-well plate, E. cloacae; format: cell-based; conditions: read-out: Minimum Inhibitory Concentration
[5] = system: Escherichia coli ATCC 25922; assay: MIC, 2-fold dilution method in micro-well plate, E. coli; format: cell-based
Method in brief: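 Broth two-fold microdilution of hydrochloride salts in water against E. coli ATCC 25922 grown overnight in BHI at 37° C. Final inoculum about (10^5 -10^6)/2 cfu/ml; after incubation at 37° C, MIC was recorded.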

[6] = system: Haemophilus influenza ATCC 35056; assay: MIC, 2-fold dilution method in micro-well plate, H. influenzae; format: cell-based; conditions: H. influenzae ATCC35056, 37° C.; read-out: Minimum Inhibitory Concentration
Method in brief: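 Hydrochloride salts dissolved in water (10 mg/ml stock) and serially diluted two-fold in micro-wells, each mixed with equal volume of overnight BHI-grown bacteria to about (10^5-10^6)/2 cfu/ml. Minimum inhibitory concentration recorded after incubation at 37° C.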

[7] = system: Klebsiella pneumoniae ATCC 13883; assay: MIC, 2-fold dilution method in micro-well plate, K. pneumoniae; format: cell-based
Method in brief: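 MIC determined after 37 °C incubation of wells inoculated with overnight BHI-grown bacteria at about (10^5–10^6)/2 cfu/ml final. Compound tested as hydrochloride salt, dissolved in sterile water and diluted two-fold serially.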

[8] = system: Proteus vulgaris ATCC 13315; assay: MIC, 2-fold dilution method in micro-well plate, P. vulgaris; format: cell-based
Method in brief: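 MIC recorded after 37 °C cultivation of compound hydrochloride salts in serial 2-fold aqueous dilutions, mixed equally with overnight BHI culture (about 10^5 cfu/ml inoculum). Micro-well plate format.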

[9] = system: Pseudomonas aeruginosa ATCC 27853; assay: MIC, 2-fold dilution method in micro-well plate, P. aeruginosa; format: cell-based; conditions: P. aerugirnosa ATCC27853, 37° C., read-out: Minimum Inhibitory Concentration
Method in brief: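 MIC was recorded after 37° C incubation of bacteria with serial two-fold dilutions of compound. Bacteria came from an overnight 37° C BHI culture; the final inoculum was about (10^5-10^6)/2 cfu/ml. Compounds were tested as hydrochloride salts diluted in sterile water from a 10 mg/ml stock.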

[10] = system: Salmonella typhimurium ATCC 14028; assay: MIC, 2-fold dilution method in micro-well plate, S. typhimurium; format: cell-based; conditions: Salmonella enterica, read-out: Minimum Inhibitory Concentration
Method in brief: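 Hydrochloride salts dissolved in sterile water (10 mg/ml stock) and serially diluted twofold in microplate wells, then inoculated to roughly (10^5-10^6)/2 cfu/ml from overnight BHI culture. MIC recorded after 37 °C cultivation.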

[11] = system: Shigella flexneri ATCC 12022; assay: MIC, 2-fold dilution method in micro-well plate, S. flexneri; format: cell-based; conditions: S. flexneri ATCC12022, 37° C., read-out: Minimum Inhibitory Concentration
Method in brief: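 Test compounds, converted to hydrochloride salts and dissolved in sterile water, were serially diluted two-fold in micro-well plates. Wells received bacteria grown overnight in brain-heart infusion broth at 37 °C, about (10^5–10^6)/2 cfu/ml final. Minimum inhibitory concentration determined following incubation at 37 °C.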

[12] = system: Shigella sonnei ATCC 25931; assay: MIC, 2-fold dilution method in micro-well plate, S. sonnei; format: cell-based; conditions: S. sonnei ATCC25931, 37° C., read-out: Minimum Inhibitory Concentration
Method in brief: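 Compounds, converted to hydrochloride salts, were serially diluted two-fold in micro-wells and mixed with an equal volume of bacteria grown overnight in BHI broth at 37° C (final about (10^5-10^6)/2 cfu/ml). Following culture at 37° C, the minimum inhibitory concentration was recorded.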

[13] = system: Serratia marcescens ATCC 8100; assay: MIC, 2-fold dilution method in micro-well plate, S. marcescens; format: cell-based
Method in brief: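 Bacteria grown overnight in BHI broth at 37 °C were added to wells of two-fold diluted compound (as HCl salt, aqueous) at about (10^5-10^6)/2 cfu/ml final. Lowest inhibitory concentration recorded after 37 °C incubation.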

[14] = system: Streptococcus faecalis ATCC 19433; assay: MIC, 2-fold dilution method in micro-well plate, S. faecalis ATCC 19433; format: cell-based; conditions: Enterococcus faecalis; S. faecalis ATCC19433, 37° C.; read-out: Minimum Inhibitory Concentration
Method in brief: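 Bacteria grown overnight in brain-heart infusion broth at 37 °C, then mixed with two-fold serial aqueous dilutions of hydrochloride salts in micro-wells at roughly (10^5-10^6)/2 cfu/ml. Lowest inhibitory concentration recorded after 37 °C culture.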

[15] = system: Streptococcus faecalis ATCC 29212; assay: MIC, 2-fold dilution method in micro-well plate, S. faecalis ATCC 29212; format: cell-based; conditions: Enterococcus faecalis; S. faecalis ATCC29212, 37° C.; read-out: Minimum Inhibitory Concentration
Method in brief: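 MIC was read after incubation at 37° C in micro-well plates. Bacteria were grown overnight in BHI broth and added to give about (10^5-10^6)/2 cfu/ml per well. The hydrochloride-salt compounds were serially diluted two-fold in sterile water.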

[16] = system: Streptococcus pneumoniae ATCC 6303; assay: MIC, 2-fold dilution method in micro-well plate, S. pneumoniae; format: cell-based; conditions: S. pneuinoniae ATCC6303, 37° C., read-out: Minimum Inhibitory Concentration
Method in brief: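 Inoculum of about (10^5–10^6)/2 cfu/ml came from an overnight brain-heart infusion culture at 37° C. Compounds, tested as hydrochloride salts dissolved in sterile water, were two-fold serially diluted in micro-well plates. The lowest concentration inhibiting growth after 37° C incubation was taken as MIC.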

[17] = system: Streptococcus pyrogens ATCC 19615; assay: MIC, 2-fold dilution method in micro-well plate, S. pyrogens; format: cell-based; conditions: S. pyrogenes ATCC19615, 37° C., read-out: Minimum Inhibitory Concentration
Method in brief: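 Inoculum from overnight 37° C brain-heart infusion culture gave roughly (10^5-10^6)/2 cfu/mL per well against two-fold serial dilutions of hydrochloride-salt compound in water. Lowest concentration inhibiting growth after 37° C incubation taken as MIC.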

[18] = Pharmacokinetic properties in ICR mouse, oral and subcutaneous, Bio-Assay (Agar well method); format: in vivo; conditions: 40 mg/kg, average of four tests; for AUC / Cmax / Tmax / bioavailability / half-life: blood; for dose excreted: urine, read-out: Urine Recovery
Experimental: The pharmacokinetic properties are tested by orally administrating and subcutaneously injecting a test compound and a substance for control to a ICR Mouse with 22 g±10% weight, drawing blood after 10, 20, 30, 45, 60, 90, 120, 150, 180 and […] and analyzed by Bio-Assay (Agar well method).

[19] = A. calcoaceticus ATCC8090 (as in tables), 37° C., read-out: Minimum Inhibitory Concentration
[20] = ATCC13048, read-out: Minimum Inhibitory Concentration
[21] = E. cloacae ATCC23355 (as in tables), 37° C.
[22] = E. coli ATCC25922, 37° C., read-out: Minimum Inhibitory Concentration
[23] = ATCC13883, read-out: Minimum Inhibitory Concentration
[24] = P. vulgaris ATCC13315, 37° C., read-out: Minimum Inhibitory Concentration
[25] = S. marcescens ATCC8100, 37° C., read-out: Minimum Inhibitory Concentration
[26] = K. pneumoniae ATCC13883, 37° C., read-out: Minimum Inhibitory Concentration
[27] = ATCC8100, read-out: Minimum Inhibitory Concentration

Row | SMILES | MIC [1, 19] [µg/mL] | MIC [2] [µg/mL] | MIC [3, 20] [µg/mL] | MIC [5, 22] [µg/mL] | MIC [6] [µg/mL] | MIC [8, 24] [µg/mL] | MIC [9] [µg/mL] | MIC [10] [µg/mL] | MIC [11] [µg/mL] | MIC [12] [µg/mL] | MIC [14] [µg/mL] | MIC [15] [µg/mL] | MIC [16] [µg/mL] | MIC [17] [µg/mL] | AUC ([18]; po, P.O) [ng·h/mL] | Cmax ([18]; po, P.O) [ng/mL] | Tmax ([18]; po, P.O) [h] | bioavailability ([18]; po, P.O) [%] | half-life ([18]; po, P.O) [h] | AUC ([18]; sc, S.C) [ng·h/mL] | other results
1 | CC1CN(c2nc3c(cc2F)c(=O)c(C(=O)O)cn3-c2ccc(F)cn2)CCN1.Cl (centres unmarked) [Example 14, 1-(5-fluoro-2-pyridyl)-6-fluoro-7-(3-methyl-1-piperazinyl)-1,4-dihydro-4-oxo-1,8-naphthyridine-3-carboxylic acid hydrochloride] | 0.625 | 0.625 | 1.25 | 0.313 | 1.25 | 0.625 | 1.25 | 1.25 | 0.156 | 0.078 | 5 | 2.5 | 5 | 10 | 12500 | 2120 | 0.87 | 44 | 3.81 | 28100 | MIC [4, 21]: 0.625 µg/mL; MIC [7, 23]: 1.25 µg/mL; MIC [13, 25]: 0.313 µg/mL; Cmax ([18]; sc, S.C): 4280 ng/mL; Tmax ([18]; sc, S.C): 0.6 h; half-life ([18]; sc, S.C): 7.28 h; dose excreted ([18]; po, P.O): 58.9%; dose excreted ([18]; sc, S.C): 21.1%
2 | CC1CN(c2cc3c(cc2F)c(=O)c(C(=O)O)cn3-c2ccc(F)cn2)CCN1.Cl (centres unmarked) [Example 19, 1-(5-fluoro-2-pyridyl)-6-fluoro-7-(3-methyl-1-piperazinyl)-1,4-dihydro-4-oxoquinoline-3-carboxylic acid hydrochloride] | 1.25 | 1.25 | 0.625 | 0.078 | 0.625 | 0.156 | 0.625 | 0.313 | 0.313 | 0.313 | 5 | 5 | 5 | 10 | 16900 | 3110 | 0.87 | 72.7 | 8.42 | 23300 | MIC [4]: 0.625 µg/mL; MIC [7, 26]: 1.25 µg/mL; MIC [13, 27]: 0.625 µg/mL; Cmax ([18]; sc, S.C): 5110 ng/mL; Tmax ([18]; sc, S.C): 0.87 h; half-life ([18]; sc, S.C): 5.32 h; dose excreted ([18]; po, P.O): 29%; dose excreted ([18]; sc, S.C): 48.7%
3 | Cl.NC1CCN(c2c(F)cc3c(=O)c(C(=O)O)cn(-c4ccc(F)cn4)c3c2F)C1 (centres unmarked) [Example 27, 1-(5-fluoro-2-pyridyl)-6,8-difluoro-7-(3-amino-1-pyrrolidinyl)-1,4-dihydro-4-oxoquinoline-3-carboxylic acid hydrochloride] | 0.313 | 0.156 | – | 0.078 | 0.078 | 0.156 | 0.313 | – | 0.078 | 0.005 | 1.25 | 2.5 | 2.5 | 2.5 | – | – | – | – | – | – | MIC ([3]; E. aerogenes ATCC13048, 37° C., read-out: Minimum Inhibitory Concentration): 0.156 µg/mL; MIC [4, 21]: 0.313 µg/mL; MIC [7, 26]: 0.156 µg/mL; MIC ([10]; S. typhisurium ATCC14028, 37° C.): 0.078 µg/mL; MIC [13, 25]: 0.313 µg/mL
4 | Cc1c(F)c(N2CCN(C)CC2)cc2c1c(=O)c(C(=O)O)cn2-c1ccc(F)cn1.Cl [Example 28, 5-methyl-7-(4-methyl-1-piperazinyl)-1-(5-fluoro-2-pyridyl)-6-fluoro-1,4-dihydro-4-oxoquinoline-3-carboxylic acid hydrochloride] | – | 2.5 | 0.625 | – | 0.313 | – | 1.25 | 1.25 | 0.625 | 1.25 | 10 | 5 | 10 | 10 | 62400 | 6360 | 0.87 | 81.3 | 7.57 | 76100 | MIC ([1]; ATCC8090, read-out: Minimum Inhibitory Concentration): 1.25 µg/mL; MIC [4]: 0.625 µg/mL; MIC ([5]; ATCC25922, read-out: Minimum Inhibitory Concentration): 1.25 µg/mL; MIC [7, 23]: 1.25 µg/mL; MIC ([8]; ATCC13315, read-out: Minimum Inhibitory Concentration): 0.625 µg/mL; MIC [13, 27]: 1.25 µg/mL; Cmax ([18]; sc, S.C): 6940 ng/mL; Tmax ([18]; sc, S.C): 1 h; half-life ([18]; sc, S.C): 7.26 h; dose excreted ([18]; po, P.O): 25.2%; dose excreted ([18]; sc, S.C): 13.4%
